Test results from patent US11026972B2, “Methods for generating macrophages with enhanced cancer phagocytosis” (Georgia State University Research Foundation, Inc., priority 2016, dated 2021).

B1: IFNγ: recombinant murine cytokine, PeproTech (protein, UniProt P01580 23-155, looked up)
Interferon gamma: HGTVIESLESLNNYFNSSGIDVEEKSLFLDIWRNWQKDGDMKILQSQIISFYLRLFEVLKDNQAISNNISVIESHLITTFFSNSKAKKDAFMSIAKFEVNNPQVQRQAFNELIRVVHQLLPESSLRKRKRSRC
B2: IL-1β: recombinant murine cytokine, PeproTech (protein, UniProt P10749 118-269, looked up)
Interleukin-1 beta: VPIRQLHYRLRDEQQKSLVLSDPYELKALHLNGQNINQQVIFSMSFVQGEPSNDKIPVALGLKGKNLYLSCVMKDGTPTLQLESVDPKQYPKKKMEKRFVFNKIEVKSKVEFESAEFPNWYISTSQAEHKPVFLGNNSGQDIIDFTMESVSS

What was measured:
PEMs = experiment: Cell signaling inhibitors on LPS/cytokine- or PMA-induced PEM phagocytic activation toward RBCs; format: cell-based, mouse; conditions: for LPS and cytokine-induced phagocytic activation: PEMs treated with LPS and cytokines in the presence of inhibitors
Procedure: FIGS. 5A-5H include data related to our experiments on the role of Syk in phagocytic activation. […] PEMs were treated with LPS and cytokines in the presence of various inhibitors. After washing, inhibitor-free macrophages were tested for phagocytosis toward RBCs. […] PEMs treated with LPS and activating cytokines, or together with IL-10, were tested for total Syk and phosphorylated Syk (Syk^pY, specific at Y519/520). FIG. 5D describes PMA-induced macrophages phagocytosis toward RBCs. WT and SIRPα^−/− PEMs were treated with PMA (37° C., 30 min) before testing phagocytosis toward RBCs. FIG. 5E is a schematic depiction of PKC-Syk-mediated macrophage phagocytic activation toward self. […] Left: Inhibition of Syk by piceatannol and R406 prevented PMA-induced phagocytic activation. […] Error bars are ±SEM. ***P<0.001 vs. the respective controls. […] LPS-treated WT PEMs were further briefly treated with pervanadate before testing for phagocytosis toward RBCs. Error bars are ±SEM. ***P<0.001 vs. the respective controls. […] Data presented in each panel represent at least three independent experiments with n≥4, if applicable.
Ex vivo macrophage phagocytosis: Mouse spleens were harvested and minced in cold HBSS followed by passing through nylon meshes. The spleen cells in suspensions were collected by centrifugation followed by washing. After lysis of RBC, splenocytes were plated in cell culture dishes in DMEM with 10% FBS and cultured for 2 h followed by removal of non-adherent cells. The adherent cells, ˜70% being macrophages as determined by anti-F4/80 staining, were tested for phagocytosis. For phagocytosis of RBC or other tissue cells, targeted cells were labeled with CFSE prior to addition into the macrophage-containing wells. Macrophages and target cells, at a ratio of 1:5-10 for RBC or 1:1-2 for other cells, were co-incubated for 30 min at 37° C. followed by gently washing. Macrophage phagocytosis of target cells was then analyzed by fluorescence microscopy and/or by FACS. […] Alternatively, the freshly isolated splenocytes in suspension were incubated with CFSE-labeled RBC and other phagocytic targets for 30 min at 37° C. Macrophage phagocytosis was then determined by FACS after labeling macrophages with anti-F4/80. To test phagocytosis of apoptotic cells, B16 cells were irradiated by UV for 150 seconds at 50 J/m^2 strength. Apoptosis was analyzed at 2, 4, 6, 8 and 18 h post UV irradiation by labeling of the cells with anti-phosphatidylserine (PS) antibody (data not shown) or FITC-conjugated annexin V (data not shown). Cells that were confirmed to be apoptotic were trypsinized, labeled with CFSE, and then co-incubated with macrophages for 30 min at 37° C. After gentle washing, phagocytosis was analyzed by fluorescence microscopy and/or FACS. To test phagocytosis of bacteria and the fungal product zymosan, AlexaFluor-conjugated E.coli strain […] (2 μl suspension, ˜2 μg) or zymosan bioparticles (1 μl suspension, ˜2 μg) (both from Invitrogen) were incubated with macrophages for 30 min followed by washing and analyses. Similar procedures were performed to test phagocytosis of macrophages from various sources. To obtain peritoneal macrophages, peritonea of mice were lavaged by sterile PBS followed by centrifugation to collect cells. Cells suspended in DMEM with 10% FBS were then plated in cell culture dishes and incubated for 2 h at 37° C. followed by removal of non-adherent cells. To produce bone marrow-derived macrophages, freshly isolated bone marrow cells were culture in macrophage colony-stimulating factor (MCSF, ˜10 ng/ml)-containing MEM with 10% FBS for five-six days and macrophage differentiation was confirmed by anti-F4/80 staining.

[1] = tested on: splenic macrophages, PEMs and BMDMs; experiment: Ex vivo macrophage phagocytosis toward RBCs and other self-cells after activation; format: cell-based, mouse; conditions: for ability to induce macrophage phagocytosis toward self: PEM, lack of the CD47-SIRPα-mediated inhibition
Procedure: FIGS. 3A-3H include data related to our experiments assaying macrophage phagocytosis ex vivo. FIGS. 3A and 3B show macrophage phagocytosis of RBCs. Freshly isolated splenic macrophages (MØ) and peritoneal macrophages (PEM) and in vitro-derived BMDM (bone marrow-derived macrophages) were tested for phagocytosis toward CFSE-labeled Cd47^+ or Cd47^− RBCs. […] FIGS. 3F and 3G illustrate LPS and IL-17-activated PEM phagocytosis toward splenocytes (FIG. 3F), B16, and EL4 (FIG. 3G). Error bars are ±SEM. **P<0.01, ***P<0.001 vs. no treatment controls. […] PEM lavaged without (ctl.) or with Brewer thioglycollate (3%, i.p.) elicitation was tested. Error bars are ±SEM. ***P<0.001 vs. control PEM. Data presented in each panel represent at least three independent experiments with n≥4, if applicable.
FIGS. 4A-4E include data related to our experiments on macrophage phagocytic plasticity. FIG. 4A is a panel of illustrative line graphs showing that IL-10 inhibits macrophage phagocytosis toward “self.” PEMs were treated with LPS and activating cytokines along with various concentrations of IL-10 before testing their ability to phagocytose RBCs. FIG. 4B illustrates the phagocytic plasticity of WT red pulp macrophages. […] Treatments of cultured macrophages with LPS and IL-17 re-elicited their phagocytosis toward RBCs. […] Error bars are ±SEM. ***P<0.001 vs. freshly isolated splenic macrophages. FIG. 4D includes microscopic images of RBC phagocytosis by LPS- and IL-17-treated splenic macrophages. […] WT PEMs treated with LPS or IL-17 were further treated with Cd47^+ RBCs or Cd47-AP (10 min, 37° C.) followed by cell lysis, SIRPα immunoprecipitation, and WB detection of SIRPα phosphorylation (SIRPα^pY) and SHP-1 association. Data presented in each panel represent at least three independent experiments with n≥4, if applicable.
Ex vivo macrophage phagocytosis: Mouse spleens were harvested and minced in cold HBSS followed by passing through nylon meshes. The spleen cells in suspensions were collected by centrifugation followed by washing. After lysis of RBC, splenocytes were plated in cell culture dishes in DMEM with 10% FBS and cultured for 2 h followed by removal of non-adherent cells. The adherent cells, ˜70% being macrophages as determined by anti-F4/80 staining, were tested for phagocytosis. For phagocytosis of RBC or other tissue cells, targeted cells were labeled with CFSE prior to addition into the macrophage-containing wells. Macrophages and target cells, at a ratio of 1:5-10 for RBC or 1:1-2 for other cells, were co-incubated for 30 min at 37° C. followed by gently washing. Macrophage phagocytosis of target cells was then analyzed by fluorescence microscopy and/or by FACS. To better recognize macrophages, macrophages in wells were labeled with an anti-F4/80 or an anti-CD11b antibody. Alternatively, the freshly isolated splenocytes in suspension were incubated with CFSE-labeled RBC and other phagocytic targets for 30 min at 37° C. Macrophage phagocytosis was then determined by FACS after labeling macrophages with anti-F4/80. To test phagocytosis of apoptotic cells, B16 cells were irradiated by UV for 150 seconds at 50 J/m^2 strength. Apoptosis was analyzed at 2, 4, 6, 8 and 18 h post UV irradiation by labeling of the cells with anti-phosphatidylserine (PS) antibody (data not shown) or FITC-conjugated annexin V (data not shown). Cells that were confirmed to be apoptotic were trypsinized, labeled with CFSE, and then co-incubated with macrophages for 30 min at 37° C. After gentle washing, phagocytosis was analyzed by fluorescence microscopy and/or FACS. To test phagocytosis of bacteria and the fungal product zymosan, AlexaFluor-conjugated E.coli strain […] (2 μl suspension, ˜2 μg) or zymosan bioparticles (1 μl suspension, ˜2 μg) (both from Invitrogen) were incubated with macrophages for 30 min followed by washing and analyses. Similar procedures were performed to test phagocytosis of macrophages from various sources. […]

Molecule	LPS and cytokine-induced phagocytic activation (PEMs)	also measured
O=C(O)CN(CCN(CC(=O)O)CC(=O)O)CC(=O)O [EDTA]	–	macrophage phagocytic activation (PEMs; presence of EDTA): hindered macrophage phagocytic activation
COc1cc2ncnc(Nc3ccc(O)cc3)c2cc1OC [JAK3 inhibitor I]	diminished phagocytic activation induced by certain, but not all stimuli	–
Cc1ccc(NCCCc2ccccc2)c(N)c1 [JSH-23]	diminished phagocytic activation induced by certain, but not all stimuli	–
C/C(O)=C(\C#N)C(=O)Nc1cc(Br)ccc1Br [LFM-13]	diminished phagocytic activation induced by certain, but not all stimuli	–
COc1cccc(-c2cc(=O)c3ccccc3o2)c1N [PD98059]	diminished phagocytic activation induced by certain, but not all stimuli	–
Cc1ccc(-c2nn(C(C)(C)C)c3ncnc(N)c23)cc1 [PP1]	diminished phagocytic activation induced by certain, but not all stimuli	–
CC(C)(C)n1nc(-c2ccc(Cl)cc2)c2c(N)ncnc21 [PP2]	diminished phagocytic activation induced by certain, but not all stimuli	–
COc1cc(Nc2ncc(F)c(Nc3ccc4c(n3)NC(=O)C(C)(C)O4)n2)cc(OC)c1OC [R406]	–	PEM activation (PEMs; 400 nM, all stimuli): nearly completely eliminated PEM activation induced by all stimuli; PMA-induced PEM phagocytosis (PEMs; Syk inhibition): eliminated the PMA-induced PEM phagocytosis; LPS-induced activation of PEM phagocytosis toward RBC (PEMs; dose dependence): dose-dependently inhibited
C[S+]([O-])c1ccc(-c2nc(-c3ccncc3)c(-c3ccc(F)cc3)[nH]2)cc1 (centres unmarked) [SB203580]	diminished phagocytic activation induced by certain, but not all stimuli	–
COc1ccc2c(c1)CC[C@@H]1[C@@H]2CC[C@]2(C)[C@@H](NCCCCCCN3C(=O)C=CC3=O)CC[C@@H]12 [U73122]	diminished phagocytic activation induced by certain, but not all stimuli	–
JAK inhibitor I	diminished phagocytic activation induced by certain, but not all stimuli	–
pervanadate	–	Cd47-dependent phagocytic recognition ([1]; LPS-treated WT PEMs briefly treated with pervanadate): eliminates Cd47-dependent phagocytic recognition
tumor necrosis factor-alpha [TNFα]	–	ability to induce macrophage phagocytosis toward self [1]: have the ability to induce macrophage phagocytosis toward self
B1	–	ability to induce macrophage phagocytosis toward self [1]: not
B2	–	ability to induce macrophage phagocytosis toward self [1]: have the ability to induce macrophage phagocytosis toward self
